Measurements: patent US5770382A, “Tricyclic retinoids, methods for their production and use” (Ligand Pharmaceuticals, Inc., priority 1995, dated 1998)

Biological target: T1, RARβ (Homo sapiens, UniProt P10826)
T1 construct: expressed in transfected cells; host or cells: CV-1 (African green monkey kidney fibroblasts)
T1 sequence (P10826 1-448 isoform P10826-2): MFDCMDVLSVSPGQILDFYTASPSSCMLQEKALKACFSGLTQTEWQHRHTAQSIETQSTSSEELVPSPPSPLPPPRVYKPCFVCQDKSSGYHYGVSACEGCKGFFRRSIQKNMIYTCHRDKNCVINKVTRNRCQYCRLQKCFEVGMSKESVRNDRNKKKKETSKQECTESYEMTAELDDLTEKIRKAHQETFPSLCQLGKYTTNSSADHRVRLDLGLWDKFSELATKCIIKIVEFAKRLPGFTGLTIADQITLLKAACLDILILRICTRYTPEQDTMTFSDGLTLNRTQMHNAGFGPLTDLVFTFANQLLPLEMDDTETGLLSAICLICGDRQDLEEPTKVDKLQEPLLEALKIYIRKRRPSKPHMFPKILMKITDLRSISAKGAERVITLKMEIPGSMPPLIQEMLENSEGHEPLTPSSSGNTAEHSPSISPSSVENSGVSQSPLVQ
Assay: Co-transfection assay, RARβ agonist activity
Assay type: cell-based
Details: CV-1 cells, 40 hours; read-out: RARβ Pot (potency, EC50)

EC50: 0.061 µM
SMILES: CC(/C=C/C=C1/CC(C)(C)Oc2cc3c(cc21)C(C)(C)CCC3(C)C)=C\C(=O)O [Compound 104b, (2E,4E)-3-Methyl-6-(2,3,6,7,8,9-hexahydro-2,2,6,6,9,9-hexamethylbenzo[b]-chromen-4-ylidene)-hexa-2,4-dienoic acid]
